From US9776972B2, “Pyrazole derivatives as arginine methyltransferase inhibitors and uses thereof” (priority 2013, dated 2017)
Where two headings read alike, the source gives them in different places.

Assays:
human PRMT6 = target: T1, human PRMT6 (Homo sapiens, UniProt Q96LA8); test: PRMT6 Biochemical Assay (3H-SAM Flashplate, peptide substrate); settings: Biochemical IC50 PRMT6, single experiment or average of multiple experiments
T1 construct: Flag-PRMT6-His; made in house; host or cells: HEK 293F cells (BacMam baculovirus)
T1 sequence (Q96LA8 with tags, fused parts or gaps): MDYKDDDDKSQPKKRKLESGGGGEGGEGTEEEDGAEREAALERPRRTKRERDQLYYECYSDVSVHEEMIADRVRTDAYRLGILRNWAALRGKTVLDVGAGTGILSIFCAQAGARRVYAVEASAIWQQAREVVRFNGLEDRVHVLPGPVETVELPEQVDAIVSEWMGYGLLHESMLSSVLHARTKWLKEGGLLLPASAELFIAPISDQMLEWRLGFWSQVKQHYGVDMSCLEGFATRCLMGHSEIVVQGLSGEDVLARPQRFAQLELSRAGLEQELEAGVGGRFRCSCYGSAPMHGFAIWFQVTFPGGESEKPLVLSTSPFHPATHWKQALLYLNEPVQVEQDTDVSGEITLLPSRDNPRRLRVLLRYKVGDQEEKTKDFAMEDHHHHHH
How it was run: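 Flag-PRMT6-His, expressed in mammalian cells from a BacMam vector, was preincubated with compound for 30 min at room temperature in Bicine pH 7.6 buffer with TCEP, BSG and Tween 20. Reactions were started with ³H-SAM and a biotinylated histone H4 36-50 peptide, then stopped with cold SAM (400 uM final). Labeled peptide was captured on streptavidin Flashplates, counted, and fitted to a 3- or 4-parameter curve.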

[1] = test system: mono-methyl arginine in RKO cells; test: RKO Methylation Assay, In Cell Western (ICW) for mono-methyl arginine and DNA content; type: cell-based; settings: Homo sapiens, RKO, 72 h
How it was run: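 RKO cells treated with compound for 72 hours at 37 °C, then methanol-fixed and stained overnight at 4 °C with anti-mono-methyl arginine antibody, plus DRAQ5 for DNA. Signal ratio from 700 and 800 nm infrared scans normalized to DMSO (minimum) and 20 μM reference compound (maximum); EC30 from triplicate curves.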

[2] = RKO cells, 72 hours, mono-methyl arginine, percent activation, single experiment or average of multiple experiments, read-out: EC30 (In Cell Western data, Numerical)
[3] = read-out: EC30 (In Cell Western data, Numerical, μM)

Row | Structure (SMILES) | IC50 (human PRMT6) [nM] | EC30 [1, 2] [µM] | EC30 [1, 3] [µM]
1 | CNCCN(C)Cc1cn(C2CC2)nc1-c1ccc(F)cc1 [Compound 13] | 271 | > 20 | –
2 | CNCCN(C)Cc1cnn(C2CC2)c1-c1ccc(F)cc1 [Compound 14] | 27.7 | 3.35 | –
3 | CNCCN(C)Cc1cn(C(C)C)nc1-c1ccc(F)cc1 [Compound 15] | 526 | > 20 | –
4 | CNCCN(C)Cc1cnn(C(C)C)c1-c1ccc(F)cc1 [Compound 16] | 57.9 | – | > 20
5 | CNCCN(C)Cc1cn[nH]c1-c1ccc(C#N)cc1 [Compound 17] | 12.8 | – | > 20
6 | CNCCN(C)Cc1cn[nH]c1-c1cc(F)cc(F)c1 [Compound 18] | 13.6 | – | –
7 | CN(CCN)Cc1n[nH]cc1-c1ccc(C2CCOCC2)cc1 [Compound 145] | 60 | 1.95 | –
8 | COc1ccc(-c2n[nH]cc2CN(C)CCN)c(Cl)c1 [Compound 146] | 12.5 | 7.16 | –
9 | CN(CCN)Cc1c[nH]nc1-c1cc(C#N)ccc1Cl [Compound 147] | 53.6 | > 20 | –
10 | CN(CCN)Cc1c[nH]nc1-c1ccc(C(F)(F)F)cc1F [Compound 148] | 68.2 | 7.3 | –
11 | CN(CCN)Cc1c[nH]nc1-c1cccc(N(C)C)c1 [Compound 149] | 62.5 | 4.32 | –
12 | CCOC(=O)c1cccc(-c2n[nH]cc2CN(C)CCN)c1 [Compound 150] | 29 | 6.66 | –
13 | COc1cc(F)ccc1-c1n[nH]cc1CN(C)CCN [Compound 151] | 112 | 9.73 | –
14 | Cc1cc(F)ccc1-c1n[nH]cc1CN(C)CCN [Compound 152] | 22.7 | 5.78 | –
15 | COc1ccc(-c2n[nH]cc2CN(C)CCN)cc1 [Compound 153] | 11.6 | 1.39 | –
16 | COc1ccc(-c2n[nH]cc2CN(C)CCN)c(C(F)(F)F)c1 [Compound 154] | 375 | > 20 | –
17 | COc1ccc(-c2n[nH]cc2CN(C)CCN)c(C)c1 [Compound 155] | 22.3 | 10.6 | –
18 | CN(CCN)Cc1c[nH]nc1-c1cc(Cl)ccc1F [Compound 156] | 43.1 | 9.56 | –
19 | COc1ccc(Cl)cc1-c1n[nH]cc1CN(C)CCN [Compound 157] | 504 | > 20 | –
20 | Cc1ccc(C#N)cc1-c1n[nH]cc1CN(C)CCN [Compound 158] | 115 | > 20 | –
21 | Cc1ccc(F)cc1-c1n[nH]cc1CN(C)CCN [Compound 159] | 27.3 | 8.56 | –
22 | COc1ccc(F)cc1-c1n[nH]cc1CN(C)CCN [Compound 160] | 191 | 17.7 | –
23 | Cc1ccccc1-c1n[nH]cc1CN(C)CCN [Compound 161] | 96.5 | 14.9 | –
24 | Cc1ccc(-c2n[nH]cc2CN(C)CCN)cc1 [Compound 162] | 7.71 | 1.34 | –
25 | CCN(C)C(=O)c1ccc(-c2n[nH]cc2CN(C)CCN)cc1 [Compound 163] | 62.6 | > 20 | –

Row | Structure (SMILES) | IC50 (human PRMT6) [nM] | EC30 [1, 2] [µM] | EC30 [1, 3] [µM]
26 | CC(C)CN(C)C(=O)c1ccc(-c2n[nH]cc2CN(C)CCN)cc1 [Compound 164] | 41.8 | 18.5 | –
27 | CCOc1ccc(-c2n[nH]cc2CN(C)CCN)cc1 [Compound 166] | 15.6 | 0.434 | –
28 | COCCOc1ccc(-c2n[nH]cc2CN(C)CCN)cc1 [Compound 167] | 17.4 | 0.845 | –
29 | Cc1[nH]nc(-c2ccc(F)cc2)c1CN(C)CCN [Compound 169] | 85 | > 20 | –
30 | CC(C)Cc1ccc(-c2c[nH]nc2CN(C)CCN)cc1 [Compound 170] | 59.3 | 1.39 | –
31 | NCCN(CCO)Cc1c[nH]nc1-c1ccc(F)cc1 [Compound 171] | 2420 | > 20 | –
32 | CN(CCN)Cc1c[nH]nc1-c1ccc(OCCN2CCOCC2)cc1 [Compound 172] | 26.4 | > 20 | –
33 | CN(CCN)Cc1c[nH]nc1-c1ccc2c(c1)NC(=O)CO2 [Compound 173] | 14.9 | > 20 | –
34 | CNCCN(C)Cc1c[nH]nc1-c1ccc(C(F)(F)F)cc1 [Compound 174] | 15 | 0.26 | –
35 | CNCCN(C)Cc1c[nH]nc1-c1ccc(OC2CCOCC2)cc1 [Compound 175] | 12.5 | 0.174 | –
36 | CC(C)Oc1ccc(-c2nn(C)cc2CN(C)CCN)cc1 [Compound 176] | 67.3 | 0.882 | –
37 | CC(C)Oc1ccc(-c2c(CN(C)CCN)cnn2C)cc1 [Compound 177] | 34.2 | 0.295 | –
38 | CN(CCN)Cc1c[nH]nc1-c1ccc(OC2CCOCC2)cc1 [Compound 178] | 7.22 | 0.954 | –
39 | COCCCOc1ccc(-c2n[nH]cc2CN(C)CCN)cc1 [Compound 179] | 13.4 | 0.03 | –
40 | CNCCN(C)Cc1c[nH]nc1-c1ccc(OC(C)C)c(F)c1 [Compound 181] | 17.3 | 0.046 | –
41 | CNCCN(C)Cc1c[nH]nc1-c1ccc(Cl)c(F)c1 [Compound 182] | 5.48 | 0.179 | –
42 | CN(CCN(C)C1CC1)Cc1c[nH]nc1-c1ccc(C#N)cc1 [Compound 184] | 2380 | 2.41 | –
43 | CN(CCN1CCC1)Cc1c[nH]nc1-c1ccc(C#N)cc1 [Compound 185] | 407 | > 20 | –
44 | CC(C)Oc1cccc(-c2n[nH]cc2CN(C)CCN)c1 [Compound 187] | 77.6 | 7.07 | –
45 | CC(C)Oc1cc(-c2n[nH]cc2CN(C)CCN)ccc1F [Compound 188] | 37.4 | 12.3 | –
46 | CCC(=O)N1CCN(c2ccc(-c3n[nH]cc3CN(C)CCN)cc2)CC1 [Compound 189] | 29.5 | > 20 | –
47 | CC(C)CN1C(=O)COc2ccc(-c3n[nH]cc3CN(C)CCN)cc21 [Compound 191] | 435 | > 20 | –
48 | CN(CCN)Cc1c[nH]nc1-c1ccc2c(c1)OCC(=O)N2C [Compound 192] | 34.6 | > 20 | –
49 | CC(C)CN1C(=O)COc2cc(-c3n[nH]cc3CN(C)CCN)ccc21 [Compound 193] | 247 | 9.72 | –
50 | CN(CCN)Cc1c[nH]nc1-c1ccc(OCCO)cc1 [Compound 194] | 15.3 | 17 | –

Row | Structure (SMILES) | IC50 (human PRMT6) [nM] | EC30 [1, 2] [µM] | EC30 [1, 3] [µM]
51 | CN(CCN)Cc1c[nH]nc1-c1ccc(OCCCO)cc1 [Compound 195] | 9.24 | 7.18 | –
52 | CN(CCN)Cc1c[nH]nc1-c1ccc2c(c1)N(C)C(=O)CO2 [Compound 196] | 28.7 | > 20 | –
53 | CCNC(=O)c1cccc(-c2n[nH]cc2CN(C)CCN)c1 [Compound 197] | 67.2 | > 20 | –
54 | CCN(C)C(=O)c1cccc(-c2n[nH]cc2CN(C)CCN)c1 [Compound 198] | 322 | > 20 | –
55 | Cc1cc(-c2n[nH]cc2CN(C)CCN)cc(C)c1OC(C)C [Compound 199, N^1-((3-(4-isopropoxy-3,5-dimethylphenyl)-1H-pyrazol-4-yl)methyl)-N^1-methylethane-1,2-diamine] | 103 | 2.82 | –
56 | CN(CCN)Cc1c[nH]nc1-c1ccc(Oc2ccccc2)c(C#N)c1 [Compound 202] | 2.9 | 0.941 | –
57 | CN(CCN)Cc1n[nH]cc1-c1ccc(Oc2ccccc2)cc1 [Compound 203] | 2.42 | 1.72 | –
58 | CNCCN(C)Cc1n[nH]cc1-c1ccc(Oc2ccccc2)cc1 [Compound 204] | 1.14 | 0.801 | –
59 | CN(CCN)Cc1c[nH]nc1-c1ccc(Oc2cccc(F)c2)cc1 [Compound 205] | 1.53 | 1.69 | –
60 | CNCCN(C)Cc1cn(C)nc1-c1ccc(OC(C)C)c(Cl)c1 [Compound 206] | 21.4 | – | 1.16
61 | CNCCN(C)Cc1cn(C)nc1-c1ccc(Oc2ccccc2)cc1 [Compound 207] | 3.3 | 2.31 | –
62 | CNCCN(C)Cc1cnn(C)c1-c1ccc(Oc2ccccc2)cc1 [Compound 208] | 2.93 | 0.696 | –
63 | CNCCN(C)Cc1c[nH]nc1-c1ccc(OCCCOC)cc1 [Compound 209] | 4.05 | 0.557 | –
64 | CNCCN(C)Cc1n[nH]cc1-c1ccc(OC(C)C)c(F)c1 [Compound 210] | 16.1 | 0.268 | –
65 | CC(C)Oc1ccc(-c2c[nH]nc2CN(C)CCN)cc1Cl [Compound 211] | 20.5 | 0.523 | –
66 | CNCCN(C)Cc1n[nH]cc1-c1ccc(OC(C)C)c(Cl)c1 [Compound 212] | 9.07 | 0.238 | –
67 | CCn1cc(CN(C)CCNC)c(-c2ccc(OC(C)C)cc2)n1 [Compound 213] | 82.1 | 0.708 | –
68 | CNCCN(C)Cc1cn(C2CCCC2)nc1-c1ccc(OC(C)C)cc1 [Compound 214] | 124 | 2.25 | –
69 | CNCCN(C)Cc1cn(C2CCOC2)nc1-c1ccc(OC(C)C)cc1 (stereo not shown) [Compound 215] | 323 | 7.47 | –
70 | CNCCN(C)Cc1cnn(C2CCOC2)c1-c1ccc(OC(C)C)cc1 (stereo not shown) [Compound 216] | 27.7 | 0.726 | –
71 | CNCCN(C)Cc1cn(Cc2ccccc2)nc1-c1ccc(OC(C)C)cc1 [Compound 217] | 42.1 | 2.15 | –
72 | C=CCn1cc(CN(C)CCNC)c(-c2ccc(OC(C)C)cc2)n1 [Compound 218] | 132 | 5.74 | –
73 | C=CCn1ncc(CN(C)CCNC)c1-c1ccc(OC(C)C)cc1 [Compound 219] | 30.8 | 0.919 | –
